Broadly, the Ki is a measure of affinity in units of concentration, obtained from inhibition or displacement.

Numbering of substitutions follows the chain as printed.

In assay [1] the target is T1, OX2R (Rattus norvegicus, UniProt P56719).
T1 construct: expressed in transfected cells; host or cells: CHO-K1
T1 sequence (P56719 1-460): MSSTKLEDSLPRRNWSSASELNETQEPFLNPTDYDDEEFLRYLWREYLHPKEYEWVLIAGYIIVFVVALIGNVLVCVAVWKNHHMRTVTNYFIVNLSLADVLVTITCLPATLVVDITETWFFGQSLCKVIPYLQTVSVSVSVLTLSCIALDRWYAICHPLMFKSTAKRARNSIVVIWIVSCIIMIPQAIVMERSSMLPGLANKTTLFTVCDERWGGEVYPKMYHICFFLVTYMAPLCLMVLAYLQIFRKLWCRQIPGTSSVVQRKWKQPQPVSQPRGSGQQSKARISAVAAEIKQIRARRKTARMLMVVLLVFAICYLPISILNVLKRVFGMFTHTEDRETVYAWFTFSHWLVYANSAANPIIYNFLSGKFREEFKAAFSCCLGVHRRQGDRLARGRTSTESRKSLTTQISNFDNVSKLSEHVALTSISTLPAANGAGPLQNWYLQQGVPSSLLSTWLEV
The assay is described as follows: Inhibition of orexin-peptide-A-induced calcium mobilization in CHO cells, rat OX2R. It is filed as cell-based. The following applies: for fold OX2R selectivity (Kb): OX1R Kb / OX2R Kb. On the procedure:
(§1) MK-1064 was evaluated for its ability to inhibit orexin-peptide-A-induced calcium mobilization in CHO cell lines separately expressing OX1R and OX2R from mice, rats, rabbits, dogs, rhesus monkeys and humans.
(§2) Binding and functional blockade of OX1R and OX2R with MK-1064 relative to other 2-SORAs and the DORA, MK-6096, were assessed using membranes from Chinese hamster ovary (CHO)-K1 cells (American Type Tissue Collection, Manassas, VA) transfected to express human, mouse, rat, rabbit, dog, or rhesus monkey OX1R or OX2R receptors, as described previously. The kinetics of binding to human OX2R was assessed by radioligand displacement on CHO-K1 cells expressing the receptor. […] The ON rate analysis was performed by presoaking GF/B filters in 0.3% polyethyleneimine (Sigma) using a Skatron 12-well cell harvester and cold buffer at the indicated time points after addition. For OFF rate determination, binding reactions were allowed to proceed to equilibrium and terminated with 1000x [Kd] of unlabeled antagonist and filtered as above at pre-determined time points. Ultima Gold^TM (PerkinElmer 6013327) scintillation cocktail was added to each filter disc and counted on a PerkinElmer TriCarb 2910 scintillation counter. Data were analyzed using GraphPad® Prism v 6.04 (San Diego, CA, USA). The KON rate was determined according to the equation, KON = (KOBS − KOFF)/[ligand].
Background: Calcium assays in cells follow changes in intracellular calcium, usually with a dye or a luminescent sensor.

The target in assay [2] is T2, OX2R (Oryctolagus cuniculus, UniProt G1STQ8).
T2 sequence (G1STQ8 1-444): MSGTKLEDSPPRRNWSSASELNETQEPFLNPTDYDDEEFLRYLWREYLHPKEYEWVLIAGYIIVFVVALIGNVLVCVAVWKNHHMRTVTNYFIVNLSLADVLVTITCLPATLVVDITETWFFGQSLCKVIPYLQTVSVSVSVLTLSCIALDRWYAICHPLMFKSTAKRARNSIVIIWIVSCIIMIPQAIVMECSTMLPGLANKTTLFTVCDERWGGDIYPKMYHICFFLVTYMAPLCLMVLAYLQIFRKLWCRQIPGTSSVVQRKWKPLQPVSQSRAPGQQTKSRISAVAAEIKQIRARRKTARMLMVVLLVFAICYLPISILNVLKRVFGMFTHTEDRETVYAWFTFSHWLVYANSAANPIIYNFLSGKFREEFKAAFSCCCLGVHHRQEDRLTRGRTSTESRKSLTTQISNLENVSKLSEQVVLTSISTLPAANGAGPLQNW
Description: Inhibition of orexin-peptide-A-induced calcium mobilization in CHO cells, rabbit OX2R. It is filed as cell-based. As to conditions: for fold OX2R selectivity (Kb): OX1R Kb / OX2R Kb. On the procedure:
as §1, §2

The next assay has as its target T3, hOX1R (Homo sapiens, UniProt O43613).
T3 construct: expressed in transfected cells; host or cells: CHO-K1
T3 sequence (O43613 1-425): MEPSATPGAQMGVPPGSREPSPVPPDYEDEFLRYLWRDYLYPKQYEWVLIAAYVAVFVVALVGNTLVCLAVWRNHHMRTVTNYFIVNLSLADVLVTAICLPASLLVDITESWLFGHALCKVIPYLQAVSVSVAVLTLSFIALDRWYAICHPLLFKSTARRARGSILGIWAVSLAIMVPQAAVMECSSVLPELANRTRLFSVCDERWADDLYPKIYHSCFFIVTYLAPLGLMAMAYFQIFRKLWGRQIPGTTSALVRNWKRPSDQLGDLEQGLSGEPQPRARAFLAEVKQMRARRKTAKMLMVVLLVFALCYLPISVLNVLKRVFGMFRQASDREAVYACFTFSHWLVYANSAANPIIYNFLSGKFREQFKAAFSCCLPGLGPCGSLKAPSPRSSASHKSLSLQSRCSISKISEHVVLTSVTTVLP
The assay is described as follows: Radio-ligand displacement binding, CHO-K1 membranes, human OX1R. The following applies: read-out: OX1R affinity (Ki). On the procedure: as §1, §2

The target of assay [3] is T4, OX1R (Oryctolagus cuniculus, UniProt G1SPJ3).
T4 sequence (G1SPJ3 1-416): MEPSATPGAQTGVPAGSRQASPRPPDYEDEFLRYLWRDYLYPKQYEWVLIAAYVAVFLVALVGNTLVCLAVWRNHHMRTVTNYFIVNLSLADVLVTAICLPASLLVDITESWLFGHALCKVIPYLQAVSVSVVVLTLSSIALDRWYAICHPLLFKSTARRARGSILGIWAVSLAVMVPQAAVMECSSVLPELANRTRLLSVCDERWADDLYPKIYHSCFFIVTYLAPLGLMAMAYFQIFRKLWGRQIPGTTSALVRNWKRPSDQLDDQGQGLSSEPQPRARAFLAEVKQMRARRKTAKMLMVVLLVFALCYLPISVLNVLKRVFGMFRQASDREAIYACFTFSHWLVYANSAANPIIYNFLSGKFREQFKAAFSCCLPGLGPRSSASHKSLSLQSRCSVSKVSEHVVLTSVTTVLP
Description: Inhibition of orexin-peptide-A-induced calcium mobilization in CHO cells, rabbit OX1R. Type of assay: cell-based. On the procedure:
as §1, §2

For assay [4], the target named is T2, OX2R. Description: Radio-ligand displacement binding, CHO-K1 membranes, rabbit OX2R. As to conditions: for fold OX2R selectivity (Ki): OX1R Ki / OX2R Ki; for Ki: read-out: OX2R affinity (Ki). On the procedure: as §1, §2
The target in assay [5] is T5, OX1R (Macaca mulatta, UniProt F7FE63).
T5 sequence (F7FE63 1-425): T3 sequence (O43613 1-425) with G12R, P15T, V58L, A102V, A174T, I175V, E275Q, L380P, I408V, I411L
Description: Radio-ligand displacement binding, CHO-K1 membranes, rhesus OX1R. The following applies: read-out: OX1R affinity (Ki). The arrangement: species or system rhesus monkey. On the procedure: as §1, §2

On to `COc1ccc(CNC(=O)c2cc(-c3cc(Cl)cc(Cl)c3)cnc2-c2cccnc2)cc1OC` [2-SORA-18], for which the values for the Kb at OX2R [1], at OX2R [2] and on OX1R [3] were 21 nM, 30 nM and 496 nM, respectively. Further, the “fold OX2R selectivity (Kb)” value was “[50] fold” at OX2R [1] and “[17] fold” at OX2R [2]. In addition, the Ki at hOX1R is 100 nM; on OX2R [4], 0.1 nM; at OX1R [5], 132 nM. On OX2R [4], the “fold OX2R selectivity (Ki)” value was “[2410] fold”.
For the molecule `COc1ccc(CNC(=O)c2cc(-c3cncc(C)c3)ncc2-c2nccs2)nc1OC` [MK-3697], the values for the Kb on OX2R [1], on OX2R [2] and at OX1R [3] were 31 nM, 27 nM and 32100 nM, respectively. In addition, the inhibitory constant (Ki) turned out to be 1.01 nM on OX2R [4] and 2180 nM at OX1R [5].
`Cc1ccc(-c2ncccn2)c(C(=O)N2C[C@H](COc3ccc(F)cn3)CC[C@H]2C)c1` [MK-6096]: the Kb on OX2R [1] was 22 nM; at OX2R [2] it was 16 nM; at OX1R [3], 13 nM. Moreover, the “fold OX2R selectivity (Kb)” value was “[0.5] fold” on OX2R [1] and “[0.8] fold” on OX2R [2]. Also, the Ki at hOX1R came to 2.5 nM; on OX2R [4] it was 0.28 nM; on OX1R [5] it was 12.5 nM. The “fold OX2R selectivity (Ki)” value at OX2R [4] is “[9.3] fold”.
For the molecule `COc1ccc(CNC(=O)c2cc(-c3cncc(Cl)c3)cnc2-c2ccccn2)nc1OC` [MK-1064, 5″-chloro-N-[(5,6-dimethoxypyridin-2-yl)methyl]-2,2′:5′, 3″-terpyridine-3′-carbo xamide], the Kb is 13 nM at OX2R [1], 10 nM on OX2R [2] and 7370 nM at OX1R [3]. Also, the “fold OX2R selectivity (Kb)” value at OX2R [1] was “[613] fold”; at OX2R [2], “[737] fold”. For the same molecule, the Ki is 1500 nM on hOX1R, 0.51 nM at OX2R [4] and 815 nM on OX1R [5]. Further, the “fold OX2R selectivity (Ki)” value at OX2R [4] was “[4780] fold”.
Consider `COc1ccc(CNC(=O)c2cc(-c3cncc(C)c3)ncc2-c2ccccc2)nc1OC` [2-SORA-7], for which the results for the Kb at OX2R [1], on OX2R [2] and at OX1R [3] were 18 nM, 22 nM and 16800 nM, respectively. The “fold OX2R selectivity (Kb)” value at OX2R [1] was “[3238] fold”; on OX2R [2], “[764] fold”. Further, the results for the Ki on hOX1R, on OX2R [4] and on OX1R [5] were 2800 nM, 0.44 nM and 1340 nM, respectively. Further, the “fold OX2R selectivity (Ki)” value on OX2R [4] was “[9986] fold”.

(Values after article PMC4891657, “Orexin 2 Receptor Antagonism is Sufficient to Promote NREM and REM Sleep from Mouse to Man” (Scientific Reports, 2016).)
